Laboratory results published in BindingDB's records for PubMed 9584223 (University of Bath, 1998).
Values joined by “and” are separate entries in the source; they are usually repeats but may differ in a detail not shown here. Identical values can stand only once.

Target: Neuronal acetylcholine receptor subunit alpha-4 (Homo sapiens, UniProt P43681)
Sequence (P43681 whole entry): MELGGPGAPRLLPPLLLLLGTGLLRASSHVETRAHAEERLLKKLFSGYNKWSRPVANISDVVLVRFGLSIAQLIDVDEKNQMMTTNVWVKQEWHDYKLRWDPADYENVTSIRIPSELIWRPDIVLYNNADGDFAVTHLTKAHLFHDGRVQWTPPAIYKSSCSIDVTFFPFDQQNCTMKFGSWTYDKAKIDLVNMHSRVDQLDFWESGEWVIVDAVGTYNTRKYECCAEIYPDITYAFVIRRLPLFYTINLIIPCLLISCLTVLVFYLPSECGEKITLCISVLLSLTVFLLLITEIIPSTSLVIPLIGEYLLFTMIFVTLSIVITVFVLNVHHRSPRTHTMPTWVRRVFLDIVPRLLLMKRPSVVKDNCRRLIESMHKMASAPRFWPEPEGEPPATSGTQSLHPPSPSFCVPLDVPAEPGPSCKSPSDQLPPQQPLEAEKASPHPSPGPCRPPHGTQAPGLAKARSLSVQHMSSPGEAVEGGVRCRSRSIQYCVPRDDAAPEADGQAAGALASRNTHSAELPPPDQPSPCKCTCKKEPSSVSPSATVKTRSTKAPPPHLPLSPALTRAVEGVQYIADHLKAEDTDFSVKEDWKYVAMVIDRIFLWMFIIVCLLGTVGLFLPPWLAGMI

In the case of `O=c1cccc2n1C[C@H]1CNC[C@H]2C1` [(1S,9R)-7,11-diazatricyclo[7.3.1.0~2,7~]trideca-2,4-dien-6-one], the Ki is reported as 0.017 µM and 0.0033 µM.
For `Cc1cc([C@@H]2CCCN2C)on1` [ABT-418], the Ki was 0.0017 µM.
With `COc1cc2c3cc1Oc1cc(ccc1O)C[C@H]1c4c(cc(OC)c(O)c4Oc4ccc(cc4)C[C@@H]3N(C)CC2)CC[N+]1(C)C` [CAS_57-94-3] the Ki was 1 µM and > 10 µM.
In the case of `C[N+](C)(C)CCCCCC[N+](C)(C)C` [Hexamethoniumdibromide], the Ki is reported as > 10 µM.
For `CNC1(C)C2CCC(C2)C1(C)C` (stereo unspecified) [Methyl-(2,3,3-trimethyl-bicyclo[2.2.1]hept-2-yl)-amine(Mecamylamine)], the Ki was > 10 µM.
`CCN1C[C@]2(COC(=O)c3ccccc3-n3c(O)cc(C)c3O)CC[C@H](OC)[C@]34C5C[C@@H]6[C@@H](OC)C[C@@](O)(C5[C@H]6OC)[C@@](O)(C13)[C@@H](OC)C24` (stereo partly drawn) [[(1S,4S,5R,6S,8R,9R,13S,16S,18S)-11-ethyl-8,9-dihydroxy-4,6,16,18-tetramethoxy-11-azahexacyclo[7.7.2.1^{2,5}.0^{1,10}.0^{3,8}.0^{13,17}]nonadecan-13-yl]methyl 2-[(3S)-3-methyl-2,5-dioxopyrrolidin-1-yl]benzoate] was tested, and the Ki was 6.1 µM and 1.6 µM.
